US8975417B2, “Pyrazolopyrrolidine derivatives and their use in the treatment of disease” (Novartis AG, priority 2013, dated 2015)
pIC50: −log10 of the molar value. Read-outs that look alike come from different tables or passages of the source.

Tests used:
His-Brd2(60-472) = His-Brd2(60-472) (Homo sapiens (Human), UniProt P25440); experiment: TR-FRET in-vitro binding assay for BRD2; settings: biochemical
Method in brief: (§1)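 Bromodomain protein (45 nM in its addition solution) and tetra-acetylated histone H4 peptide (AcK5/8/12/16; 60 nM in its addition solution) were incubated with compounds for 35 min at 30 °C in 50 mM HEPES pH 7.5, 50 mM NaCl, 0.005% Tween20, 0.1% BSA. Eu-anti-His6 plus streptavidin-allophycocyanin detection followed, with TR-FRET read-out.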

His-Brd3(20-477) = His-Brd3(20-477) (Homo sapiens (Human), UniProt Q15059); experiment: TR-FRET in-vitro binding assay for BRD3; settings: biochemical
Method in brief: as §1

K-562 cells = experiment: Cell growth inhibition assay (CellTiter-Glo), K-562; format: cell-based, human
Method in brief: (§2)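 Luminescent ATP quantification served as the viability read-out following incubation at 37° C. under 5% CO2. A day-0 reference plate allowed scaling from −100% (medium) to 100% (0.1% DMSO vehicle), with IC50 and TGI fitted by a four-parameter model.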

THP-1 cells = experiment: Cell growth inhibition assay (CellTiter-Glo), THP-1; format: cell-based; settings: Homo sapiens, read-out: THP-1 TGI
Method in brief: as §2

[1] = Homo sapiens, K562, read-out: K-562 TGI

Chain of His-Brd3(20-477) (Q15059 20-477): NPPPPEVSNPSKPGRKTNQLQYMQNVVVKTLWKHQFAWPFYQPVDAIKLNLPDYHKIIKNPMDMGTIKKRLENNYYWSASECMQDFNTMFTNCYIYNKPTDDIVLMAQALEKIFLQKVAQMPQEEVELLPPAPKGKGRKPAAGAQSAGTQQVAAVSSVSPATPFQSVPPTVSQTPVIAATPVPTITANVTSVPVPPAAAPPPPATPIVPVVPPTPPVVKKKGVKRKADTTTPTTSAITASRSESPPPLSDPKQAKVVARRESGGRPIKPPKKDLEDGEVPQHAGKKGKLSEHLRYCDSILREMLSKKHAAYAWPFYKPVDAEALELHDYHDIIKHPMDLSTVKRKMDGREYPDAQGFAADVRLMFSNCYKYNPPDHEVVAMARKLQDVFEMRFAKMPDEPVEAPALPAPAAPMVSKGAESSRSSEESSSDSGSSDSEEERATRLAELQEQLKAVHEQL
Chain of His-Brd2(60-472) (P25440 60-472): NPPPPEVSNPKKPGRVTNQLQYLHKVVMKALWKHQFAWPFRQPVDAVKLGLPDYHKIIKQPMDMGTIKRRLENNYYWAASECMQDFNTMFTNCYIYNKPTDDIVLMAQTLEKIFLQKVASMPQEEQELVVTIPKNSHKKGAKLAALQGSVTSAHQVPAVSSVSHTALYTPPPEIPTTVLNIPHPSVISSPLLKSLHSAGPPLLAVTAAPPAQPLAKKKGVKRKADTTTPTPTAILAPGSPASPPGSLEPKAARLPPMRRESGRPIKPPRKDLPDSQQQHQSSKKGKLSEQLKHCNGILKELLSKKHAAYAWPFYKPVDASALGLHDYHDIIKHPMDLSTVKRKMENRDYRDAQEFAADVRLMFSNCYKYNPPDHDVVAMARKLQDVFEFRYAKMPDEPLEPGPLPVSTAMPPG

Structure (SMILES) | pIC50 (His-Brd2(60-472)) | pIC50 (His-Brd3(20-477)) | IC (total growth inhibition) (K-562 cells; read-out: K-562 TGI) | IC (total growth inhibition) (THP-1 cells) | IC (total growth inhibition) (K-562 cells; [1])
COc1ncc(-n2nc(C)c3c2C(=O)N(c2cc(C)c(=O)n(C)c2)C3c2ccc(Cl)cc2)c(OC)n1 (racemic) [Example 52, 4-(4-chlorophenyl)-1-(2,4-dimethoxypyrimidin-5-yl)-5-(1,5-dimethyl-6-oxo-1,6-dihydropyridin-3-yl)-3-methyl-4,5-dihydropyrrolo[3,4-c]pyrazol-6(1H)-one] | 7.20 | 7.16 | >10 µM | – | –
Cn1cc(N2C(=O)c3c(c(C(F)(F)F)nn3C3CC3)C2c2ccc(Cl)cc2)cc(Cl)c1=O (stereo not shown) [Example 44, 5-(5-chloro-1-methyl-6-oxo-1,6-dihydropyridin-3-yl)-4-(4-chlorophenyl)-1-cyclopropyl-3-(trifluoromethyl)-4,5-dihydropyrrolo[3,4-c]pyrazol-6(1H)-one] | 6.77 | 6.55 | – | 0.484 µM | > 10 µM
Cc1nn(C2CC2)c2c1[C@@H](c1ccc(Cl)cc1)N(c1cc(Cl)c(=O)n(C)c1)C2=O [Example 51, (R)-5-(5-chloro-1-methyl-6-oxo-1,6-dihydropyridin-3-yl)-4-(4-chlorophenyl)-1-cyclopropyl-3-methyl-4,5-dihydropyrrolo[3,4-c]pyrazol-6(1H)-one] | 7.77 | 7.68 | – | 0.126 µM | > 10 µM
COc1ncc(-n2nc3c(c2C(C)C)C(c2ccc(Cl)cc2)N(c2ccc4onc(C)c4c2)C3=O)c(OC)n1 (stereo not shown) [Example 54, 4-(4-chlorophenyl)-2-(2,4-dimethoxypyrimidin-5-yl)-3-isopropyl-5-(3-methylbenzo-[d]isoxazol-5-yl)-4,5-dihydropyrrolo[3,4-c]pyrazol-6(2H)-one] | 6.32 | 6.52 | – | 1.43 µM | > 10 µM
COc1ncc(-n2nc3c(c2C)C(c2ccc(Cl)cc2)N(c2cc(Cl)c(=O)n(C)c2)C3=O)c(OC)n1 (stereo not shown) [Example 55, 5-(5-chloro-1-methyl-6-oxo-1,6-dihydropyridin-3-yl)-4-(4-chlorophenyl)-2-(2,4-dimethoxypyrimidin-5-yl)-3-methyl-4,5-dihydropyrrolo[3,4-c]pyrazol-6(2H)-one] | 7.01 | 7.10 | – | 0.364 µM | > 10 µM
COc1ncccc1-n1nc(C)c2c1C(=O)N(c1cc(Cl)c(=O)n(C)c1)C2c1ccc(Cl)cc1 (stereo not shown) [Example 72, 5-(5-chloro-1-methyl-6-oxo-1,6-dihydropyridin-3-yl)-4-(4-chlorophenyl)-1-(2-methoxypyridin-3-yl)-3-methyl-4,5-dihydropyrrolo[3,4-c]pyrazol-6(1H)-one] | 7.22 | 7.14 | – | 0.408 µM | > 10 µM
COc1c2c(nn1C)C(=O)N(c1cc(C)c(=O)n(C)c1)C2c1ccc(Cl)cc1 (stereo not shown) [Example 77, 4-(4-chlorophenyl)-5-(1,5-dimethyl-6-oxo-1,6-dihydropyridin-3-yl)-3-methoxy-2-methyl-4,5-dihydropyrrolo[3,4-c]pyrazol-6(2H)-one] | – | – | – | 0.37 µM | > 10 µM
Cc1ncccc1-n1nc2c(c1C)C(c1ccc(Cl)cc1)N(c1cc(C)c(=O)n(C)c1)C2=O (stereo not shown) [Example 81, 4-(4-chlorophenyl)-5-(1,5-dimethyl-6-oxo-1,6-dihydropyridin-3-yl)-3-methyl-2-(2-methylpyridin-3-yl)-4,5-dihydropyrrolo[3,4-c]pyrazol-6(2H)-one] | 6.92 | 7.01 | – | 0.422 µM | > 10 µM
Cc1nn(-c2cncn2C)c2c1C(c1ccc(Cl)cc1)N(c1cc(C)c(=O)n(C)c1)C2=O (stereo not shown) [Example 83, 4-(4-chlorophenyl)-5-(1,5-dimethyl-6-oxo-1,6-dihydropyridin-3-yl)-3-methyl-1-(1-methyl-1H-imidazol-5-yl)-4,5-dihydropyrrolo[3,4-c]pyrazol-6(1H)-one] | 6.92 | 7.01 | – | 0.396 µM | > 10 µM
Cc1nn(C2CC2)c2c1[C@@H](c1ccc(Cl)cc1)N(c1cc(C)c3nnc(C)n3n1)C2=O [Example 122, (R)-4-(4-chlorophenyl)-1-cyclopropyl-5-(3,8-dimethyl-[1,2,4]triazolo[4,3-b]-pyridazin-6-yl)-3-methyl-4,5-dihydropyrrolo[3,4-c]pyrazol-6(1H)-one] | – | – | – | 0.0107 µM | > 10 µM
CC(=O)Nc1cc(N2C(=O)c3c(c(C)nn3C3CC3)C2c2ccc(Cl)cc2)nn2c(C)nnc12 (stereo not shown) [Example 126, N-(6-(4-(4-chlorophenyl)-1-cyclopropyl-3-methyl-6-oxopyrrolo[3,4-c]pyrazol-5-(1H,4H,6H)-yl)-3-methyl-[1,2,4]triazolo[4,3-b]pyridazin-8-yl)acetamide] | – | < 4.43 | – | 1.15 µM | > 10 µM
COCc1nn(C2CC2)c2c1C(c1ccc(Cl)cc1)N(c1cc(C)c3nnc(C)n3c1)C2=O (stereo not shown) [Example 130, 4-(4-chlorophenyl)-1-cyclopropyl-5-(3,8-dimethyl-[1,2,4]triazolo[4,3-a]pyridin-6-yl)-3-(methoxymethyl)-4,5-dihydropyrrolo[3,4-c]pyrazol-6(1H)-one] | – | – | – | 0.0813 µM | > 10 µM

The next lines start with results.

pIC50 (His-Brd2(60-472)) | pIC50 (His-Brd3(20-477)) | Structure (SMILES) | IC (total growth inhibition) (K-562 cells; read-out: K-562 TGI) | IC (total growth inhibition) (THP-1 cells) | IC (total growth inhibition) (K-562 cells; [1])
7.15 | 7.04 | Cc1nn(-c2ccnn2C)c2c1C(c1ccc(Cl)cc1)N(c1cc(C)c(=O)n(C)c1)C2=O (racemic) [Example 74, 4-(4-chlorophenyl)-5-(1,5-dimethyl-6-oxo-1,6-dihydropyridin-3-yl)-3-methyl-1-(1-methyl-1H-pyrazol-5-yl)-4,5-dihydropyrrolo[3,4-c]pyrazol-6(1H)-one] | >10 µM | – | –
7.02 | 6.96 | Cc1cc(N2C(=O)c3c(cnn3C3CC3)C2c2ccc(Cl)cc2)cn(C)c1=O (stereo not shown) [Example 34, 4-(4-chlorophenyl)-1-cyclopropyl-5-(1,5-dimethyl-6-oxo-1,6-dihydropyridin-3-yl)-4,5-dihydropyrrolo[3,4-c]pyrazol-6(1H)-one] | – | 0.321 µM | > 10 µM
7.82 | 7.72 | Cc1nn(C2CC2)c2c1[C@@H](c1ccc(Cl)cc1)N(c1cc(C)c(=O)n(C)c1)C2=O [Example 49, (R)-4-(4-chlorophenyl)-1-cyclopropyl-5-(1,5-dimethyl-6-oxo-1,6-dihydropyridin-3-yl)-3-methyl-4,5-dihydropyrrolo[3,4-c]pyrazol-6(1H)-one] | – | 0.0603 µM | > 10 µM
7.51 | 7.54 | CCc1nn(C2CC2)c2c1C(c1ccc(Cl)cc1)N(c1cc(C)c3nnc(C)n3c1)C2=O (stereo not shown) [Example 70, 4-(4-chlorophenyl)-1-cyclopropyl-5-(3,8-dimethyl-[1,2,4]triazolo[4,3-a]pyridin-6-yl)-3-ethyl-4,5-dihydropyrrolo[3,4-c]pyrazol-6(1H)-one] | – | 0.0305 µM | > 10 µM
6.70 | 6.70 | Cc1cc(N2C(=O)c3nn(C)c(O)c3C2c2ccc(Cl)cc2)cn(C)c1=O (stereo not shown) [Example 73, 4-(4-chlorophenyl)-5-(1,5-dimethyl-6-oxo-1,6-dihydropyridin-3-yl)-3-hydroxy-2-methyl-4,5-dihydropyrrolo[3,4-c]pyrazol-6(2H)-one] | – | > 10 µM | > 10 µM
7.00 | 7.00 | CCOc1c2c(nn1C)C(=O)N(c1cc(C)c(=O)n(C)c1)C2c1ccc(Cl)cc1 (stereo not shown) [Example 76, 4-(4-chlorophenyl)-5-(1,5-dimethyl-6-oxo-1,6-dihydropyridin-3-yl)-3-ethoxy-2-methyl-4,5-dihydropyrrolo[3,4-c]pyrazol-6(2H)-one] | – | 0.3 µM | > 10 µM
7.10 | 7.24 | CCc1nn(CCO)c2c1C(c1ccc(Cl)cc1)N(c1cc(C)c(=O)n(C)c1)C2=O (stereo not shown) [Example 78, 4-(4-chlorophenyl)-5-(1,5-dimethyl-6-oxo-1,6-dihydropyridin-3-yl)-3-ethyl-1-(2-hydroxyethyl)-4,5-dihydropyrrolo[3,4-c]pyrazol-6(1H)-one] | – | 0.223 µM | > 10 µM
6.96 | 7.07 | CCc1nn(CCO)c2c1C(c1ccc(Cl)cc1)N(c1cc(C)c3onc(C)c3c1)C2=O (stereo not shown) [Example 79, 4-(4-chlorophenyl)-5-(3,7-dimethylbenzo[d]isoxazol-5-yl)-3-ethyl-1-(2-hydroxyethyl)-4,5-dihydropyrrolo[3,4-c]pyrazol-6(1H)-one] | – | 0.461 µM | > 10 µM
7.23 | 7.44 | CCc1c2c(nn1CCO)C(=O)N(c1cc(C)c3onc(C)c3c1)C2c1ccc(Cl)cc1 (stereo not shown) [Example 80, 4-(4-chlorophenyl)-5-(3,7-dimethylbenzo[d]isoxazol-5-yl)-3-ethyl-2-(2-hydroxyethyl)-4,5-dihydropyrrolo[3,4-c]pyrazol-6(2H)-one] | – | 1.03 µM | > 10 µM
7.01 | 7.02 | Cc1ncccc1-n1nc(C)c2c1C(=O)N(c1cc(C)c(=O)n(C)c1)C2c1ccc(Cl)cc1 (stereo not shown) [Example 82, 4-(4-chlorophenyl)-5-(1,5-dimethyl-6-oxo-1,6-dihydropyridin-3-yl)-3-methyl-1-(2-methylpyridin-3-yl)-4,5-dihydropyrrolo[3,4-c]pyrazol-6(1H)-one] | – | 0.406 µM | > 10 µM
